≈ marks a conversion by molar mass, not a printed value.
What was measured:
Type in all cases: cell-based
[1] = tested on: Proteus mirabilis IFO 3849; assay: Antibacterial activity, agar-dilution MIC, organism No. 19; conditions: Proteus mirabilis, IFO3849; Organism No. 19, bouillon-agar; read-out: Minimum Inhibitory Concentration
How it was run: (§1)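 Dilution in agar (bouillon-agar base) is the format; activity is expressed as MIC, μg per ml medium.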

[2] = tested on: Proteus rettgeri IFO 3850; assay: Antibacterial activity, agar-dilution MIC, organism No. 22; conditions: Providencia rettgeri, IFO3850; Organism No. 22, bouillon-agar; read-out: Minimum Inhibitory Concentration
How it was run: as §1

[3] = tested on: Proteus vulgaris OX-19; assay: Antibacterial activity, agar-dilution MIC, organism No. 20; conditions: Proteus vulgaris, OX19; Organism No. 20, bouillon-agar; read-out: Minimum Inhibitory Concentration
How it was run: as §1

[4] = tested on: Bacillus subtilis ATCC 6633; assay: Antibacterial activity, agar-dilution MIC, organism No. 14; conditions: Bacillus subtilis, ATCC6633; Organism No. 14, bouillon-agar; read-out: Minimum Inhibitory Concentration
How it was run: as §1

[5] = tested on: Escherichia coli NIHJ-JC-2; assay: Antibacterial activity, agar-dilution MIC, organism No. 5; conditions: Escherichia coli, NIHJJC2; Organism No. 5, bouillon-agar; read-out: Minimum Inhibitory Concentration
How it was run: as §1

[6] = tested on: Pseudomonas aeruginosa IFO 3445; assay: Antibacterial activity, agar-dilution MIC, organism No. 15; conditions: Pseudomonas aeruginosa, IFO3445; Organism No. 15, bouillon-agar; read-out: Minimum Inhibitory Concentration
How it was run: as §1

[7] = tested on: Escherichia coli K12 C600 IAM 1264; assay: Antibacterial activity, agar-dilution MIC, organism No. 6; conditions: Escherichia coli, IAM1264; Organism No. 6, bouillon-agar; read-out: Minimum Inhibitory Concentration
How it was run: as §1

[8] = tested on: Staphylococcus aureus Terajima; assay: Antibacterial activity, agar-dilution MIC, organism No. 2; conditions: Staphylococcus aureus; Organism No. 2, bouillon-agar; read-out: Minimum Inhibitory Concentration
How it was run: as §1

[9] = tested on: Serratia marcescens IAM 1184; assay: Antibacterial activity, agar-dilution MIC, organism No. 13; conditions: Serratia marcescens, IAM1184; Organism No. 13, bouillon-agar; read-out: Minimum Inhibitory Concentration
How it was run: as §1

[10] = tested on: Enterobacter cloacae 963; assay: Antibacterial activity, agar-dilution MIC, organism No. 24; conditions: Enterobacter cloacae, 963; Organism No. 24, bouillon-agar; read-out: Minimum Inhibitory Concentration
How it was run: as §1

[11] = tested on: Salmonella paratyphi-A 1015; assay: Antibacterial activity, agar-dilution MIC, organism No. 10; conditions: Salmonella enterica, PARATYPHI, read-out: Minimum Inhibitory Concentration
How it was run: as §1

[12] = tested on: Salmonella enteritidis G 14; assay: Antibacterial activity, agar-dilution MIC, organism No. 12; conditions: Salmonella enterica, ENTERITIDIS; Organism No. 12, bouillon-agar; read-out: Minimum Inhibitory Concentration
How it was run: as §1

[13] = tested on: Proteus vulgaris HX-19; assay: Antibacterial activity, agar-dilution MIC, organism No. 21; conditions: Proteus vulgaris, HX19; Organism No. 21, bouillon-agar; read-out: Minimum Inhibitory Concentration
How it was run: as §1

[14] = tested on: Streptococcus faecium IFO 3826; assay: Antibacterial activity, agar-dilution MIC, organism No. 27; conditions: Enterococcus faecium, IFO3826; Organism No. 27, bouillon-agar; read-out: Minimum Inhibitory Concentration
How it was run: as §1

[15] = tested on: Candida albicans IAM 4905; assay: Antifungal activity, agar-dilution MIC, organism No. 29; conditions: Candida albicans, IAM4905; Organism No. 29, bouillon-agar; read-out: Minimum Inhibitory Concentration
How it was run: as §1

[16] = tested on: Streptococcus pyogenes IFO 3340; assay: Antibacterial activity, agar-dilution MIC, organism No. 26; conditions: Streptococcus pyogenes, IFO3340; Organism No. 26, bouillon-agar; read-out: Minimum Inhibitory Concentration
How it was run: as §1

[17] = tested on: Enterobacter aerogenes ATCC 13048; assay: Antibacterial activity, agar-dilution MIC, organism No. 23; conditions: Klebsiella aerogenes, ATCC13048; Organism No. 23, bouillon-agar; read-out: Minimum Inhibitory Concentration
How it was run: as §1

[18] = tested on: Pseudomonas aeruginosa PAO 1; assay: Antibacterial activity, agar-dilution MIC, organism No. 17; conditions: Pseudomonas aeruginosa, PAO1; Organism No. 17, bouillon-agar; read-out: Minimum Inhibitory Concentration
How it was run: as §1

[19] = tested on: Salmonella typhimurium IID 971; assay: Antibacterial activity, agar-dilution MIC, organism No. 8; conditions: Salmonella enterica; Organism No. 8, bouillon-agar; read-out: Minimum Inhibitory Concentration
How it was run: as §1

[20] = tested on: Proteus morganii IFO 3848; assay: Antibacterial activity, agar-dilution MIC, organism No. 18; conditions: Morganella morganii, IFO3848; Organism No. 18, bouillon-agar; read-out: Minimum Inhibitory Concentration
How it was run: as §1

[21] = tested on: Klebsiella pneumoniae PCI-602; assay: Antibacterial activity, agar-dilution MIC, organism No. 7; conditions: Klebsiella pneumoniae, PCI602; Organism No. 7, bouillon-agar; read-out: Minimum Inhibitory Concentration
How it was run: as §1

[22] = tested on: Micrococcus luteus ATCC 9341; assay: Antibacterial activity, agar-dilution MIC, organism No. 25; conditions: Micrococcus luteus, ATCC9341; Organism No. 25, bouillon-agar; read-out: Minimum Inhibitory Concentration
How it was run: as §1

[23] = tested on: Staphylococcus aureus MS 353; assay: Antibacterial activity, agar-dilution MIC, organism No. 3; conditions: Staphylococcus aureus, MS353; Organism No. 3, bouillon-agar; read-out: Minimum Inhibitory Concentration
How it was run: as §1

[24] = tested on: Salmonella shottmuelleri 8006; assay: Antibacterial activity, agar-dilution MIC, organism No. 11; conditions: Salmonella, 8006; Organism No. 11, bouillon-agar; read-out: Minimum Inhibitory Concentration
How it was run: as §1

[25] = tested on: Salmonella typhi 901; assay: Antibacterial activity, agar-dilution MIC, organism No. 9; conditions: Salmonella enterica, TYPHI, read-out: Minimum Inhibitory Concentration
How it was run: as §1

[26] = tested on: Mycoplasma pneumoniae IID817; assay: Antimycoplasmal activity, MIC by phenol red colour change, organism No. 28; conditions: Mycoplasma, IID817; Organism No. 28, PPLO broth + 1% glucose, 37° C.; read-out: Minimum Inhibitory Concentration (MIC)
Description: Mycoplasma pneumoniae IID817 was used as the test microorganism in a culture medium prepared by adding 1% of glucose to "PPLO broth (manufactured by Difco Co.) liquid culture medium" at 37° C. with phenol red as an indicator, thereby culturing the test microorganism.

[27] = tested on: Streptococcus pyogenes Cook; assay: Antibacterial activity, agar-dilution MIC, organism No. 4; conditions: Streptococcus pyogenes; Organism No. 4, bouillon-agar; read-out: Minimum Inhibitory Concentration
How it was run: as §1

[28] = tested on: Staphylococcus aureus FDA 209PJc-1; assay: Antibacterial activity, agar-dilution MIC, organism No. 1; conditions: Staphylococcus aureus, FDA209PJC1; Organism No. 1, bouillon-agar; read-out: Minimum Inhibitory Concentration
How it was run: as §1

[29] = tested on: Pseudomonas aeruginosa NCTC 10490; assay: Antibacterial activity, agar-dilution MIC, organism No. 16; conditions: Pseudomonas aeruginosa, NCTC10490; Organism No. 16, bouillon-agar; read-out: Minimum Inhibitory Concentration
How it was run: as §1

[30] = tested on: Aspergillus niger IFO 6342; assay: Antifungal activity, agar-dilution MIC, organism No. 30; conditions: Aspergillus niger, IFO6342; Organism No. 30, bouillon-agar; read-out: Minimum Inhibitory Concentration
How it was run: as §1

`[C-]#[N+]C12CC3(/C=C/C(=O)Nc4ccc(C(=O)O)cc4)OC3C1O2` (stereo not drawn) [compound 51] was tested, and the MIC [1] was > 200 µg/mL, the MIC [2] was > 200 µg/mL and the MIC [3] was 12.5 µg/mL (≈ 40 µM). The MIC [4] was 50 µg/mL (≈ 160 µM), the MIC [5] was 200 µg/mL (≈ 640 µM) and the MIC [6] was > 200 µg/mL. For the same compound, the MIC [7] was 200 µg/mL (≈ 640 µM), the MIC [8] was 12.5 µg/mL (≈ 40 µM) and the MIC [9] was > 200 µg/mL. The MIC [10] was > 200 µg/mL, the MIC [11] was 50 µg/mL (≈ 160 µM) and the MIC [12] was 50 µg/mL (≈ 160 µM). For the same compound, the MIC [13] was 12.5 µg/mL (≈ 40 µM), the MIC [14] was 12.5 µg/mL (≈ 40 µM) and the MIC [15] was 100 µg/mL (≈ 320 µM). For the same compound, the MIC [16] was 25 µg/mL (≈ 80.1 µM), the MIC [17] was > 200 µg/mL and the MIC [18] was > 200 µg/mL. It also gave an MIC [19] of 100 µg/mL (≈ 320 µM), an MIC [20] of 1.56 µg/mL (≈ 5 µM) and an MIC [21] of 100 µg/mL (≈ 320 µM). The MIC [22] was 1.56 µg/mL (≈ 5 µM), the MIC [23] was 6.25 µg/mL (≈ 20 µM) and the MIC [24] was 50 µg/mL (≈ 160 µM). The MIC [25] was 50 µg/mL (≈ 160 µM), the MIC [26] was < 0.2 µg/mL and the MIC [27] was 12.5 µg/mL (≈ 40 µM). The MIC [28] was 12.5 µg/mL (≈ 40 µM), the MIC [29] was > 200 µg/mL and the MIC [30] was 100 µg/mL (≈ 320 µM).
With `[C-]#[N+]C12CC3(/C=C/C(=O)Nc4cccc(C(=O)O)c4)OC3C1O2` (stereo not drawn) [compound 52] the MIC [1] was > 200 µg/mL, the MIC [2] was > 200 µg/mL and the MIC [3] was 50 µg/mL (≈ 160 µM). The MIC [4] was 200 µg/mL (≈ 640 µM), the MIC [5] was 200 µg/mL (≈ 640 µM) and the MIC [6] was > 200 µg/mL. The MIC [7] was 200 µg/mL (≈ 640 µM), the MIC [8] was 50 µg/mL (≈ 160 µM) and the MIC [9] was > 200 µg/mL. For the same compound, the MIC [10] was > 200 µg/mL, the MIC [11] was 50 µg/mL (≈ 160 µM) and the MIC [12] was 50 µg/mL (≈ 160 µM). It also gave an MIC [13] of 50 µg/mL (≈ 160 µM), an MIC [14] of 50 µg/mL (≈ 160 µM) and an MIC [15] of 100 µg/mL (≈ 320 µM). For the same compound, the MIC [16] was 100 µg/mL (≈ 320 µM), the MIC [17] was > 200 µg/mL and the MIC [18] was > 200 µg/mL. The MIC [19] was 100 µg/mL (≈ 320 µM), the MIC [20] was 12.5 µg/mL (≈ 40 µM) and the MIC [21] was 200 µg/mL (≈ 640 µM). It also gave an MIC [22] of 25 µg/mL (≈ 80.1 µM), an MIC [23] of 25 µg/mL (≈ 80.1 µM) and an MIC [24] of 50 µg/mL (≈ 160 µM). For the same compound, the MIC [25] was 50 µg/mL (≈ 160 µM), the MIC [26] was < 0.2 µg/mL and the MIC [27] was 50 µg/mL (≈ 160 µM). The MIC [28] was 12 µg/mL (≈ 38.4 µM), the MIC [29] was > 200 µg/mL and the MIC [30] was 100 µg/mL (≈ 320 µM).
With `[C-]#[N+]C12CC3(/C=C/C(=O)Nc4cccc(OC)c4)OC3C1O2` (stereo not drawn) [compound 54] the MIC [1] was > 200 µg/mL, the MIC [2] was 6.25 µg/mL (≈ 21 µM) and the MIC [3] was 0.39 µg/mL (≈ 1.31 µM). For the same compound, the MIC [4] was 3.13 µg/mL (≈ 10.5 µM), the MIC [5] was 50 µg/mL (≈ 168 µM) and the MIC [6] was > 200 µg/mL. The MIC [7] was 50 µg/mL (≈ 168 µM), the MIC [8] was 1.56 µg/mL (≈ 5.23 µM) and the MIC [9] was 100 µg/mL (≈ 335 µM). The MIC [10] was > 200 µg/mL, the MIC [11] was 0.78 µg/mL (≈ 2.61 µM) and the MIC [12] was 3.13 µg/mL (≈ 10.5 µM). It also gave an MIC [13] of 0.3 µg/mL (≈ 1.01 µM), an MIC [14] of 25 µg/mL (≈ 83.8 µM) and an MIC [15] of 0.79 µg/mL (≈ 2.65 µM). For the same compound, the MIC [16] was 0.39 µg/mL (≈ 1.31 µM), the MIC [17] was > 200 µg/mL and the MIC [18] was > 200 µg/mL. The MIC [19] was 6.25 µg/mL (≈ 21 µM), the MIC [20] was 0.39 µg/mL (≈ 1.31 µM) and the MIC [21] was 0.2 µg/mL (≈ 0.67 µM). The MIC [22] was 0.05 µg/mL (≈ 0.168 µM), the MIC [23] was 0.2 µg/mL (≈ 0.67 µM) and the MIC [24] was 0.39 µg/mL (≈ 1.31 µM). The MIC [25] was 3.13 µg/mL (≈ 10.5 µM), the MIC [26] was < 0.2 µg/mL and the MIC [27] was 25 µg/mL (≈ 83.8 µM). For the same compound, the MIC [28] was 0.39 µg/mL (≈ 1.31 µM), the MIC [29] was > 200 µg/mL and the MIC [30] was 1.56 µg/mL (≈ 5.23 µM).

— US4684664A, “Derivatives of β-(4-isocyano-1,2,3,4-diepoxycyclopentyl) acrylic acid” (Kureha Kagaku Kogyo Kabushiki Kaisha, priority 1984, dated 1987)
